Key:
[1] = Cell viability assay (MTT) on MCF-10A normal cells; assay type: cell-based; conditions: human, MCF-10A mammary gland epithelial normal cells, MCF-10A cells, four-day incubation
Experimental: The impact of compounds 3a–h and 5a–d on cell viability was evaluated using the human mammary (MCF-10A) gland epithelium normal cell line. The MTT assay was used to evaluate the cell viability of 3a–h and 5a–d after a four-day incubation period on MCF-10A cells.[46] Refer to Appendix A for more details.
The effect of new compounds 3a–h and 5a–d on cell viability was evaluated using the MCF-10A (human mammary gland epithelium) normal cell line.
4.2. Biological evaluation
4.2.1 Cell Viability assay (MTT assay)
MTT assay was performed to investigate the effect of the synthesized compounds on mammary epithelial cells (MCF-10A). The cells were propagated in medium consisting of Ham's F-12 medium/ Dulbecco's modified Eagle's medium (DMEM) (1:1) supplemented with 10% foetal calf serum, 2 mM glutamine, insulin (10 μg/mL), hydrocortisone (500 ng/mL) and epidermal growth factor (20 ng/mL). Trypsin ethylenediamine tetra acetic acid (EDTA) was used to passage the cells after every 2-3 days. 96-well flat-bottomed cell culture plates were used to seed the cells at a density of 10^4 cells mL-1. The medium was aspirated from all the wells of culture plates after 24 h followed by the addition of synthesized compounds (in 200 μL medium to yield a final concentration of 0.1% (v/v) dimethyl sulfoxide) into individual wells of the plates. Four wells were designated to a single compound. The plates were allowed to incubate at 37°C for 96 h. Afterwards, the medium was aspirated and 3-[4,5-dimethylthiazol-2-yl]-2,5-diphenyltetrazolium bromide (MTT) (0.4 mg/mL) in medium was added to each well and subsequently incubated for 3 h. The medium was aspirated and 150 μL dimethyl sulfoxide (DMSO) was added to each well. The plates were vortexed followed by the measurement of absorbance at 540 nm on a microplate reader. The results were presented as inhibition (%) of proliferation in contrast to controls comprising 0.1% DMSO.

[2] = test system: Panc-1 pancreatic cancer cell line; test: Antiproliferative assay, Panc-1; assay type: cell-based; conditions: Homo sapiens; Panc-1 pancreatic cancer cells; read-out: Antiproliferative activity IC50 ± SEM, Panc-1
[3] = test system: HT-29 colon cancer cell line; test: Antiproliferative assay, HT-29; assay type: cell-based; conditions: Homo sapiens; HT-29 colon cancer cells; read-out: Antiproliferative activity IC50 ± SEM, HT-29
Caspase-8 = Caspase-8 activation assay in MCF-7 cells; assay type: cell-based, human; conditions: for Caspase-8 Conc.: treated at IC50 concentration; for Caspase-8 Fold change: versus untreated control
Bax = Bax activation assay in MCF-7 cells; assay type: cell-based, human; conditions: for Bax Conc.: treated at IC50 values; for Bax Fold change: versus untreated control
Experimental: This lysate was diluted in Standard Diluent Buffer over the range of the assay and measured for human active caspase-8 content. (Cells are Plated in a density of 1.2 – 1.8 × 10,000 cells/well in a volume of 100µl complete growth medium + 100 ul of the tested compound per well in a 96-well plate for 24 hours before the enzyme assay for […].). […]
4.2.7. Bax activation assay
Bring all reagents, except the human Bax-α Standard, to room temperature for at least 30 minutes prior to opening. The human Bax-α Standard solution should not be left at room temperature for more than 10 minutes. All standards, controls and samples should be run in duplicate. Refer to the Assay Layout Sheet to determine the number of wells to be used and put any remaining wells with the desiccant back into the pouch and seal the ziploc. Store unused wells at 4 °C. Pipet 100 μL of Assay Buffer into the S0 (0 pg/mL standard) wells. Pipet 100 μL of Standards #1 through #6 into the appropriate wells. Pipet 100 μL of the Samples into the appropriate wells. Tap the plate gently to mix the contents. Seal the plate and incubate at room temperature on a plate shaker for 1 hour at ~500 rpm. Empty the contents of the wells and wash by adding 400 μL of wash solution to every well.
Repeat the wash 4 more times for a total of 5 washes. After the final wash, empty or aspirate the wells and firmly tap the plate on a lint free paper towel to remove any remaining wash buffer. Pipet 100 μL of yellow Antibody into each well, except the Blank. Seal the plate and incubate at room temperature on a plate shaker for 1 hour at ~500 rpm. Empty the contents of the wells and wash by adding 400 μL of wash solution to every well. Repeat the wash 4 more times for a total of 5 washes.
After the final wash, empty or aspirate the wells and firmly tap the plate on a lint free paper towel to remove any remaining wash buffer. Add 100 μL of blue Conjugate to each well, except the Blank.
Seal the plate and incubate at room temperature on a plate shaker for 30 minutes at ~500 rpm. Empty the contents of the wells and wash by adding 400 μL of wash solution to every well. Repeat the wash 4 more times for a total of 5 washes. After the final wash, empty or aspirate the wells and firmly tap […]
the plate on a lint free paper towel to remove any remaining wash buffer. Pipet 100 μL of Substrate Solution into each well. Incubate for 30 minutes at room temperature on a plate shaker at ~500 rpm.
Pipet 100 μL Stop Solution to each well. Blank the plate reader against the Blank wells, read the optical density at 450 nm. Calculate the average net Optical Density (OD) bound for each standard and sample by subtracting the average Blank OD from the average OD for each standard and sample.
Using linear graph paper, plot the Average Net OD for each standard versus Bax concentration in each standard. Approximate a straight line through the points. The concentration of Bax in the unknowns can be determined by interpolation. […]
Remove plate cover and empty the wells. […]
Incubate the microwell strips at room temperature (18° to 25°C) for about 15 minutes, if

IC50 [2]	IC50 [3]	Compound	viability at 96 h, 50 µM [1]	Caspase-8 Conc. (Caspase-8)	Caspase-8 Fold change (Caspase-8)	Bax Conc. (Bax)	Bax Fold change (Bax)
34 ± 3 nM	34 ± 3 nM	O=c1[nH]c2ccccc2c(O)c1/C=N/c1nc(-c2ccncc2)n[nH]1 [Compound 3e, (E)-4-hydroxy-3-(((3-(pyridin-4-yl)-1H-1,2,4-triazol-5-yl)imino)methyl)quinolin-2(1H)-one]	86%	1.65 ± 0.20 ng/mL	19	316 ± 3 pg/mL	35
26 ± 2 nM	26 ± 2 nM	O=c1[nH]c2ccccc2c(O)c1C=Nc1ccc(NS(=O)(=O)c2ncccn2)cc1 [Compound 5a, N-(4-(((4-hydroxy-2-oxo-1,2-dihydroquinolin-3-yl)methylene)amino)phenyl) pyrimidine-2-sulfonamide]	87%	1.70 ± 0.15 ng/mL	21	350 ± 3 pg/mL	39
